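In this assay, cells in 96-well plates receive the compound at five concentrations for 48 hours. Endpoints are linearly interpolated between the surrounding concentrations. GI50: concentration for 50% inhibition of growth. TGI denotes the concentration required for complete inhibition of growth.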
Tests used:
Assay in all cases: NCI tumour cell line growth inhibition, 48 h
SK-MEL-2 melanoma = system: SK-MEL-2 melanoma
LOX IMVI melanoma = system: LOX IMVI melanoma
SN12C renal = system: SN12C renal
M14 melanoma = system: M14 melanoma
RXF 393 renal = system: RXF 393 renal
A498 renal = system: A498 renal
SF-539 CNS = system: SF-539 CNS
SNB-19 CNS = system: SNB-19 CNS
HCT-15 colon = system: HCT-15 colon
SW-620 colon = system: SW-620 colon

## C[C@@]1(C(=O)O)CCC[C@]2(C)C1CC[C@@]13C[C@@](O)(CC[C@]12O)[C@@]1(CO1)C3 (stereo partly specified)
SK-MEL-2 melanoma
  GI50: > 100 µM
  TGI: > 100 µM
LOX IMVI melanoma
  GI50: > 100 µM
  TGI: > 100 µM
SN12C renal
  GI50: > 100 µM
  TGI: > 100 µM
M14 melanoma
  GI50: > 100 µM
  TGI: > 100 µM
RXF 393 renal
  GI50: > 100 µM
  TGI: > 100 µM
A498 renal
  GI50: > 100 µM
  TGI: > 100 µM
SF-539 CNS
  GI50: > 100 µM
  TGI: > 100 µM
SNB-19 CNS
  GI50: > 100 µM
  TGI: > 100 µM
HCT-15 colon
  GI50: > 100 µM
  TGI: > 100 µM
SW-620 colon
  GI50: > 100 µM
  TGI: > 100 µM

## COC1C(O)CC(OC2CC(OC3CC(O[C@@H]4C(=O)c5c(cc6cc(OC7CC(OC8CC(O)C(O)C(C)O8)C(O)C(C)O7)c(C)c(O)c6c5O)CC4[C@H](OC)C(=O)O)OC(C)C3O)OC(C)C2O)OC1C (stereo partly specified)
SK-MEL-2 melanoma
  GI50: 1.47 µM
  TGI: 10.6 µM
LOX IMVI melanoma
  GI50: 0.983 µM
  TGI: 5.07 µM
SN12C renal
  GI50: 1.72 µM
  TGI: > 33.3 µM
M14 melanoma
  GI50: 3.14 µM
  TGI: > 33.3 µM
RXF 393 renal
  GI50: 1.1 µM
  TGI: 4.22 µM
A498 renal
  GI50: 0.725 µM
  TGI: 2.6 µM
SNB-19 CNS
  GI50: 1.68 µM
  TGI: > 33.3 µM
HCT-15 colon
  GI50: 6.3 µM
  TGI: > 33.3 µM
SW-620 colon
  GI50: 2.52 µM
  TGI: > 33.3 µM

## Cn1c(=O)c(Oc2ccc(F)cc2F)cc2cnc(NC(C)(C)CO)nc21
SK-MEL-2 melanoma
  GI50: > 25 µM
  TGI: > 25 µM
LOX IMVI melanoma
  GI50: > 25 µM
  TGI: > 25 µM
SN12C renal
  GI50: > 25 µM
  TGI: > 25 µM
M14 melanoma
  GI50: > 25 µM
  TGI: > 25 µM
RXF 393 renal
  GI50: > 25 µM
  TGI: > 25 µM
A498 renal
  GI50: > 15.9 µM
  TGI: > 25 µM
SF-539 CNS
  GI50: > 25 µM
  TGI: > 25 µM
SNB-19 CNS
  GI50: > 25 µM
  TGI: > 25 µM
HCT-15 colon
  GI50: > 25 µM
  TGI: > 25 µM
SW-620 colon
  GI50: > 25 µM
  TGI: > 25 µM

## Oc1ccc(Nc2ccc3ccccc3c2)cc1
SK-MEL-2 melanoma
  GI50: 15.3 µM
  TGI: 46 µM
LOX IMVI melanoma
  GI50: 8.25 µM
  TGI: 21.9 µM
SN12C renal
  GI50: 10 µM
  TGI: > 100 µM
M14 melanoma
  GI50: 5.01 µM
  TGI: 23.4 µM
RXF 393 renal
  GI50: 24.1 µM
  TGI: > 100 µM
A498 renal
  GI50: 4.1 µM
  TGI: 23.2 µM
SF-539 CNS
  GI50: 3.38 µM
  TGI: 18.6 µM
SNB-19 CNS
  GI50: 20.4 µM
  TGI: > 100 µM
HCT-15 colon
  GI50: 3.96 µM
  TGI: 23.5 µM
SW-620 colon
  GI50: 5.86 µM
  TGI: 19.5 µM

## Cc1n[nH]c(=S)n(C)c1=S
SK-MEL-2 melanoma
  TGI: > 100 µM
LOX IMVI melanoma
  TGI: > 100 µM
SN12C renal
  TGI: > 100 µM
M14 melanoma
  TGI: > 100 µM
RXF 393 renal
  TGI: > 100 µM
A498 renal
  TGI: > 100 µM
SF-539 CNS
  TGI: > 100 µM
SNB-19 CNS
  TGI: > 100 µM
HCT-15 colon
  TGI: > 100 µM
SW-620 colon
  TGI: > 100 µM

## O=C1C(=C(C(F)(F)Cl)C(F)(F)Cl)C2CCC1C2 (stereo unspecified)
SK-MEL-2 melanoma
  TGI: 4.21 µM
LOX IMVI melanoma
  TGI: 2.89 µM
SN12C renal
  TGI: 3.61 µM
M14 melanoma
  TGI: 2.38 µM
RXF 393 renal
  TGI: 3.07 µM
A498 renal
  TGI: > 10 µM
SF-539 CNS
  TGI: > 6.2 µM
SNB-19 CNS
  TGI: > 10 µM
HCT-15 colon
  TGI: 3.97 µM
SW-620 colon
  TGI: 3.98 µM

## CN(C)CCN1C(=O)c2cccc3cc([N+](=O)[O-])cc(c23)C1=O
SK-MEL-2 melanoma
  TGI: 3.14 µM
LOX IMVI melanoma
  TGI: 0.806 µM
SN12C renal
  TGI: 1.69 µM
M14 melanoma
  TGI: 2.14 µM
RXF 393 renal
  TGI: 0.923 µM
A498 renal
  TGI: 0.386 µM
SF-539 CNS
  TGI: 1.32 µM
SNB-19 CNS
  TGI: 2.12 µM
HCT-15 colon
  TGI: 4.2 µM
SW-620 colon
  TGI: 3.7 µM

## CCOC(=O)C(=O)Nc1nc2c(OCC)cccc2s1
SK-MEL-2 melanoma
  TGI: > 100 µM
LOX IMVI melanoma
  TGI: > 100 µM
SN12C renal
  TGI: > 100 µM
M14 melanoma
  TGI: > 100 µM
RXF 393 renal
  TGI: > 100 µM
A498 renal
  TGI: > 100 µM
SF-539 CNS
  TGI: > 100 µM
SNB-19 CNS
  TGI: > 100 µM
HCT-15 colon
  TGI: > 100 µM
SW-620 colon
  TGI: > 100 µM

## C=C1CC2(CC(c3ccccc3Cl)OC(c3ccccc3Cl)C2)OC1=O (stereo unspecified)
SK-MEL-2 melanoma
  TGI: 6.78 µM
LOX IMVI melanoma
  TGI: 2.72 µM
SN12C renal
  TGI: 5.75 µM
M14 melanoma
  TGI: 3.39 µM
RXF 393 renal
  TGI: 4.77 µM
A498 renal
  TGI: 21.3 µM
SF-539 CNS
  TGI: 4.27 µM
SNB-19 CNS
  TGI: 29.5 µM
HCT-15 colon
  TGI: 5.58 µM
SW-620 colon
  TGI: 5.21 µM

## COc1cccc(/C=C/C(=O)c2ccc(SC)cc2)c1OC
SK-MEL-2 melanoma
  GI50: 23.3 µM
  TGI: 40.7 µM
SN12C renal
  GI50: 14.7 µM
  TGI: 29.2 µM
M14 melanoma
  GI50: 17.2 µM
  TGI: 31.1 µM
RXF 393 renal
  GI50: 3.9 µM
  TGI: 11.7 µM
A498 renal
  GI50: 11.3 µM
  TGI: 23.8 µM
SF-539 CNS
  GI50: 20 µM
  TGI: 39.6 µM
SNB-19 CNS
  GI50: 16.2 µM
  TGI: 32 µM
HCT-15 colon
  GI50: 10.4 µM
  TGI: 30.3 µM
SW-620 colon
  GI50: 18.8 µM
  TGI: 35.7 µM

## CC1(C)S[C@@H]2[C@H](N3C(=O)c4ccccc4C3=O)CN2[C@H]1NC(=O)N[C@@H]1N2C[C@@H](N3C(=O)c4ccccc4C3=O)[C@H]2SC1(C)C
SK-MEL-2 melanoma
  TGI: > 100 µM
LOX IMVI melanoma
  TGI: > 100 µM
SN12C renal
  TGI: > 100 µM
M14 melanoma
  TGI: > 100 µM
RXF 393 renal
  TGI: 82.1 µM
A498 renal
  TGI: > 100 µM
SF-539 CNS
  TGI: > 100 µM
SNB-19 CNS
  TGI: > 100 µM
HCT-15 colon
  TGI: > 100 µM
SW-620 colon
  TGI: > 100 µM

## COc1ccc(C=Nc2c(C(=O)Nc3cccc(Cl)c3C)sc3nc(C)c(C(=O)/C=C/c4ccc(OC)cc4)cc23)cc1
SK-MEL-2 melanoma
  GI50: 0.98 µM
  TGI: 36.1 µM
LOX IMVI melanoma
  GI50: 0.666 µM
  TGI: > 50 µM
SN12C renal
  GI50: 0.853 µM
  TGI: > 50 µM
M14 melanoma
  GI50: 0.201 µM
  TGI: 1.57 µM
RXF 393 renal
  GI50: 0.163 µM
  TGI: 0.906 µM
A498 renal
  GI50: 0.196 µM
  TGI: 2.49 µM
SF-539 CNS
  GI50: 0.449 µM
  TGI: 2.41 µM
SNB-19 CNS
  GI50: 1.58 µM
  TGI: 28.3 µM
HCT-15 colon
  GI50: 0.382 µM
  TGI: > 50 µM
SW-620 colon
  GI50: 0.412 µM
  TGI: > 50 µM

## O=C(CC1(O)C(=O)N(Cc2ccccc2)c2ccc(Cl)cc21)c1ccc(C(=O)NCC2CCC3(CC2)OOC2(CCCCC2)OO3)cc1 (stereo unspecified)
SK-MEL-2 melanoma
  GI50: 1.87 µM
  TGI: 4.41 µM
LOX IMVI melanoma
  GI50: 0.0573 µM
  TGI: 0.197 µM
SN12C renal
  GI50: 0.797 µM
  TGI: 2.38 µM
M14 melanoma
  GI50: 2.52 µM
  TGI: 17.3 µM
RXF 393 renal
  GI50: 0.247 µM
  TGI: 0.608 µM
A498 renal
  GI50: 1.77 µM
  TGI: 4.13 µM
SF-539 CNS
  GI50: 0.191 µM
  TGI: 0.379 µM
SNB-19 CNS
  GI50: 5.34 µM
  TGI: > 100 µM
HCT-15 colon
  GI50: 0.573 µM
  TGI: 2.43 µM
SW-620 colon
  GI50: 2.21 µM
  TGI: 5.88 µM

## COc1cc(/C=C(\NC(=O)c2ccccc2)c2nc3ccc4c(c3[nH]2)C(=O)c2ccccc2C4=O)cc(OC)c1OC
SK-MEL-2 melanoma
  TGI: > 100 µM
LOX IMVI melanoma
  TGI: > 100 µM
SN12C renal
  TGI: > 100 µM
M14 melanoma
  TGI: > 100 µM
RXF 393 renal
  TGI: 86.8 µM
A498 renal
  TGI: > 100 µM
SF-539 CNS
  TGI: > 100 µM
SNB-19 CNS
  TGI: > 100 µM
HCT-15 colon
  TGI: > 100 µM
SW-620 colon
  TGI: > 100 µM

## CCCCOC(=O)c1ccc(N)cc1
SK-MEL-2 melanoma
  GI50: > 100 µM
  TGI: > 100 µM
LOX IMVI melanoma
  GI50: 30.8 µM
  TGI: > 100 µM
SN12C renal
  GI50: > 100 µM
  TGI: > 100 µM
M14 melanoma
  GI50: 41.1 µM
  TGI: > 100 µM
RXF 393 renal
  GI50: > 100 µM
  TGI: > 100 µM
A498 renal
  GI50: 33.6 µM
  TGI: > 100 µM
SF-539 CNS
  GI50: 30 µM
  TGI: > 100 µM
SNB-19 CNS
  GI50: 75.2 µM
  TGI: > 100 µM
HCT-15 colon
  GI50: 8 µM
  TGI: > 100 µM
SW-620 colon
  GI50: 64 µM
  TGI: > 100 µM
